Data as given in ChEMBL document CHEMBL1201862, “PubChem BioAssay data set” (2004).
The source made the active and inactive calls.

How the values were obtained:
[1] = NIH-3T3 fibroblast cytotoxicity, dose response, cytotoxicity control, cell-based, fluorescence, Alamar Blue, secondary assay (AID 2327); format: functional;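 also: NIH-3T3 mouse fibroblasts cultured with fluconazole at 8 µg/mL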
[2] = decrease of insulin promoter-GFP reporter – imaging, high-content screening, mouse beta cells (AID 1628); format: functional; details: MIN6
[3] = tested on: Streptococcus sp. 'group A'; test: Streptococcus pyogenes SK(-)GAS viability under kanamycin – luminescence, BacTiterGlo, confirmation, counter-screen for streptokinase expression inhibitor project, dose response (AID 1900); format: functional, organism-based
cells [4] = format: functional, cell-based
[5] = MIN6 cell viability loss – mouse insulinoma, cytotoxicity control, dose response (AID 2122); format: functional;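 also: confirmatory high-throughput counterscreen run to flag cytotoxic compounds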
[6] = fluconazole-exposed Candida albicans growth modulators – fluorescence, retest, confirmation (AID 2467); format: functional, cell-based
cells [7] = format: functional, cell-based; remark: listed apart in the source
[8] = target: T1, Serine/threonine-protein phosphatase (Candida dubliniensis (strain CD36 / CBS 7987 / NCPF 3949 / NRRLY-17841) (Yeast), UniProt B9W6M3); test: blockers of CaCl2-induced CDRE-lacZ signaling – S. cerevisiae, luminescence, secondary, dose response (AID 2388); format: functional, cell-based;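 also: yeast reporter cells carrying a calcineurin-responsive lacZ construct stimulated with calcium chloride; luminescent beta-galactosidase reporter signal in whole cells rather than isolated phosphatase activity; potency for inhibition where a drop in reporter signal means calcineurin blockade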
T1 sequence (B9W6M3 whole entry): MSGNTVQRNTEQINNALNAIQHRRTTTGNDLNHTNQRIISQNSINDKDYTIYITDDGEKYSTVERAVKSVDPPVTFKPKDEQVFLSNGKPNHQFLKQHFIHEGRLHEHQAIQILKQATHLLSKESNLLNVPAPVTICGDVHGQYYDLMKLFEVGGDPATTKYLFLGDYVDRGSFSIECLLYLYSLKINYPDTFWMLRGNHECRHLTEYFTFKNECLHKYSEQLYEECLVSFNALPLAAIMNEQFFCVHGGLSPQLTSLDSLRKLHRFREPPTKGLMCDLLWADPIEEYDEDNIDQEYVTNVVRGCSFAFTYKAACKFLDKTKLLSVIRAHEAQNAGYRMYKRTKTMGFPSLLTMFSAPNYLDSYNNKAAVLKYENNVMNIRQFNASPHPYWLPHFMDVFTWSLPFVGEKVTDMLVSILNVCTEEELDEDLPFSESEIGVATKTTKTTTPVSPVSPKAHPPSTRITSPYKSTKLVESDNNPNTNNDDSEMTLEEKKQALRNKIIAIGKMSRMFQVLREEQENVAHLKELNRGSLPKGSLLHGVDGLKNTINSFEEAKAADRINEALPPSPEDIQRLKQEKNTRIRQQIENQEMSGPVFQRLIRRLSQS

Streptococcus = test: GAS UMAA2166 growth inhibition – luminescence, BacTiterGlo, counter-screen for streptokinase expression inhibitor project, dose response (AID 1915); format: functional, organism-based;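 also: potency for reduction of bacterial viability or growth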
[9] = target: ATP-dependent molecular chaperone HSP82 (Candida albicans (strain WO-1) (Yeast), UniProt C4YTQ8); test: steroid-induced GRE reporter decrease in yeast – S. cerevisiae, luminescence, Hsp90 inhibitor project, dose response (AID 2400); format: functional, cell-based;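 also: beta-galactosidase luminescence from glucocorticoid response element reporter as proxy for Hsp90 function; inhibitor potency where signal loss means Hsp90 inhibition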
HEK293 = test: cells; format: functional, cell-based; details: Homo sapiens
[10] = target: T2, Nuclear receptor subfamily 0 group B member 1 (Homo sapiens, UniProt P51843); test: Luminescence-based cell-based high throughput dose response assay for inhibitors of the orphan nuclear receptor subfamily 0, group B, member 1 (DAX1; NR0B1). [Related pubchem assays (depositor defined):AID504766, AID504790]; format: functional
T2 sequence (P51843 whole entry): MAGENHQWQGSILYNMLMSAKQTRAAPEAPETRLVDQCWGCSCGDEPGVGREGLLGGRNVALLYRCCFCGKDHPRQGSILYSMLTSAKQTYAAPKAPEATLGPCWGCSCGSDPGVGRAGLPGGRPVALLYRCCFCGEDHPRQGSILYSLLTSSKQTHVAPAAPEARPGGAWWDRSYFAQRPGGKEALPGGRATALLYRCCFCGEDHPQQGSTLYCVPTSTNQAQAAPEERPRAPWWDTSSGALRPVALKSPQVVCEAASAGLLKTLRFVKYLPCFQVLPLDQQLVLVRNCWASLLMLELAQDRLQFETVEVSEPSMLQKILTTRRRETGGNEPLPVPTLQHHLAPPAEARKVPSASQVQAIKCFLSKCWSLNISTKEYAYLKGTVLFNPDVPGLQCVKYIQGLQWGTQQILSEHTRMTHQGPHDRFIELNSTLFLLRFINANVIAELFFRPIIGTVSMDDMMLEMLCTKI

[11] = target: T3, DNA repair and recombination protein RAD54-like (Homo sapiens, UniProt Q92698); test: RAD54 Holliday junction migration blockers – biochemical, fluorescence, cherry-picked samples, dose series, confirmation (AID 651657); format: functional
T3 sequence (Q92698 whole entry): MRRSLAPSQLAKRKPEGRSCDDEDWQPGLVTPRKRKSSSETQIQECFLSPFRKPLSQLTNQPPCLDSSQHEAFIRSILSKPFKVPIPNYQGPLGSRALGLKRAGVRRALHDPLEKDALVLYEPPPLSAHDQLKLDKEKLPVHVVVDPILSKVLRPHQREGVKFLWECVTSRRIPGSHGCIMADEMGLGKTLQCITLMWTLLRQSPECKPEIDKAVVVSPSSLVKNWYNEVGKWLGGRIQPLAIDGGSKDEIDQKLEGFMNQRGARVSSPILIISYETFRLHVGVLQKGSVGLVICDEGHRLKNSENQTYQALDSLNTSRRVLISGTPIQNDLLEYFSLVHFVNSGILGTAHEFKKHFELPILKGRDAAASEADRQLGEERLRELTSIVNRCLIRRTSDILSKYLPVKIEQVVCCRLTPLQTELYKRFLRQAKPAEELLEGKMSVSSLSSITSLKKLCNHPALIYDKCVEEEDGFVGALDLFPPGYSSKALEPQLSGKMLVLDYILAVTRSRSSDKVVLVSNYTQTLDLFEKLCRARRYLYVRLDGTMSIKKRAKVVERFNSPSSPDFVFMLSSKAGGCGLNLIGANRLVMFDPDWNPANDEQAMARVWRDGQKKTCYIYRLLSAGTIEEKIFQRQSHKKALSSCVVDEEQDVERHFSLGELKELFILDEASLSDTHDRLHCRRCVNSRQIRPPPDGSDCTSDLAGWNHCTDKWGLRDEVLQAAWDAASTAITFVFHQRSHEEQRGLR

[12] = target: T4, Sentrin-specific protease 8 (Homo sapiens, UniProt Q96LD8); test: inhibition of human SENP8 cleavage activity – biochemical, luminescence, SAR follow-up (AID 504501); format: functional
T4 sequence (Q96LD8 whole entry): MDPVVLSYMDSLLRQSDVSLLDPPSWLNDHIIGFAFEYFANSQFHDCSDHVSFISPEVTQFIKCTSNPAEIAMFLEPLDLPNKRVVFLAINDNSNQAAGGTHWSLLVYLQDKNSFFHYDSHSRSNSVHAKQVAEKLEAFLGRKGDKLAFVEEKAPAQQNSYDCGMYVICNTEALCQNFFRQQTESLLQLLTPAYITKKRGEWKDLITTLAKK

Caspase-3 = target: T5, Caspase-3 (Homo sapiens, UniProt P42574); test: SAR Analysis of small molecule inhibitors of Sentrin-specific proteases (SENPs) using a Caspase-3 Selectivity assay. [Related pubchem assays (depositor defined):AID2540, AID2599, AID434973, AID489001]; format: functional
T5 sequence (P42574 whole entry): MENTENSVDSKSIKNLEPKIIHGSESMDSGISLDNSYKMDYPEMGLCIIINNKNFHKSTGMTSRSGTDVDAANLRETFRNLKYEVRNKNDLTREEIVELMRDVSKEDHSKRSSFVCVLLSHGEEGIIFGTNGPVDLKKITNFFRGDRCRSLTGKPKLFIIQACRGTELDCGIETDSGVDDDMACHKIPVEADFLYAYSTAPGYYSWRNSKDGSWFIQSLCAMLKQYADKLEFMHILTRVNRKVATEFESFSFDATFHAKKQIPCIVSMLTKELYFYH

[13] = target: T6, Sentrin-specific protease 6 (Homo sapiens, UniProt Q9GZR1); test: SAR Analysis of small molecule inhibitors of Sentrin-specific protease 6 (SENP6) using a Luminescent assay. [Related pubchem assays (depositor defined):AID2582, AID2599]; format: functional
T6 sequence (Q9GZR1 whole entry): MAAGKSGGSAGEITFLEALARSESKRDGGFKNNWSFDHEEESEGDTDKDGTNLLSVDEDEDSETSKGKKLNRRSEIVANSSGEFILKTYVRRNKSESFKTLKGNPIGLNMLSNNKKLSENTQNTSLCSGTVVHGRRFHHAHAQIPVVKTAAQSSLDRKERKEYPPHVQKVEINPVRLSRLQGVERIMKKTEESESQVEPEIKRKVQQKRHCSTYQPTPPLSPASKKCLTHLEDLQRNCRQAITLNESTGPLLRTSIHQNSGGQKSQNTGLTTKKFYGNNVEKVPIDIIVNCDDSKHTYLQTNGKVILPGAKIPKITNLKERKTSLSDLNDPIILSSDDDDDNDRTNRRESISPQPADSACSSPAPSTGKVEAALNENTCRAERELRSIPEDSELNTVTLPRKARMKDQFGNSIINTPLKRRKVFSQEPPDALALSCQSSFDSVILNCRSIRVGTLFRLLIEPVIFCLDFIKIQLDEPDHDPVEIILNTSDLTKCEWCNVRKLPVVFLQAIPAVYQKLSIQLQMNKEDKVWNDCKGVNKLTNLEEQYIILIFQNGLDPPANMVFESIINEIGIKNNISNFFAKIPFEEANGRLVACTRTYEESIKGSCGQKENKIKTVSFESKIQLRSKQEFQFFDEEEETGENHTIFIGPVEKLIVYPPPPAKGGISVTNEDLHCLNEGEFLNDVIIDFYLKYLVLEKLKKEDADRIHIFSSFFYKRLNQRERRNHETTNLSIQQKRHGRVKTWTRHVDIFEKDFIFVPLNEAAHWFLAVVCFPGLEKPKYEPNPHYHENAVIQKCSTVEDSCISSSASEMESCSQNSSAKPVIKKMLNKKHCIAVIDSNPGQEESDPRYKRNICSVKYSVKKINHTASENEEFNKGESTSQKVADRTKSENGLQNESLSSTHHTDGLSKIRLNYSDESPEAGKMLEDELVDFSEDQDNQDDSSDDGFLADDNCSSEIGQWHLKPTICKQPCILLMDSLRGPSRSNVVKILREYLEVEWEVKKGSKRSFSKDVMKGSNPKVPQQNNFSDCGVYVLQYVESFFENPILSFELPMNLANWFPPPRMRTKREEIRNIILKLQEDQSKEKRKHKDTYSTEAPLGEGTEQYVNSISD

[14] = target: T7, Sentrin-specific protease 7 (Homo sapiens, UniProt Q9BQF6); test: inhibition of human SENP7 cleavage activity – biochemical, luminescence, SAR follow-up (AID 504497); format: functional
T7 sequence (Q9BQF6 whole entry): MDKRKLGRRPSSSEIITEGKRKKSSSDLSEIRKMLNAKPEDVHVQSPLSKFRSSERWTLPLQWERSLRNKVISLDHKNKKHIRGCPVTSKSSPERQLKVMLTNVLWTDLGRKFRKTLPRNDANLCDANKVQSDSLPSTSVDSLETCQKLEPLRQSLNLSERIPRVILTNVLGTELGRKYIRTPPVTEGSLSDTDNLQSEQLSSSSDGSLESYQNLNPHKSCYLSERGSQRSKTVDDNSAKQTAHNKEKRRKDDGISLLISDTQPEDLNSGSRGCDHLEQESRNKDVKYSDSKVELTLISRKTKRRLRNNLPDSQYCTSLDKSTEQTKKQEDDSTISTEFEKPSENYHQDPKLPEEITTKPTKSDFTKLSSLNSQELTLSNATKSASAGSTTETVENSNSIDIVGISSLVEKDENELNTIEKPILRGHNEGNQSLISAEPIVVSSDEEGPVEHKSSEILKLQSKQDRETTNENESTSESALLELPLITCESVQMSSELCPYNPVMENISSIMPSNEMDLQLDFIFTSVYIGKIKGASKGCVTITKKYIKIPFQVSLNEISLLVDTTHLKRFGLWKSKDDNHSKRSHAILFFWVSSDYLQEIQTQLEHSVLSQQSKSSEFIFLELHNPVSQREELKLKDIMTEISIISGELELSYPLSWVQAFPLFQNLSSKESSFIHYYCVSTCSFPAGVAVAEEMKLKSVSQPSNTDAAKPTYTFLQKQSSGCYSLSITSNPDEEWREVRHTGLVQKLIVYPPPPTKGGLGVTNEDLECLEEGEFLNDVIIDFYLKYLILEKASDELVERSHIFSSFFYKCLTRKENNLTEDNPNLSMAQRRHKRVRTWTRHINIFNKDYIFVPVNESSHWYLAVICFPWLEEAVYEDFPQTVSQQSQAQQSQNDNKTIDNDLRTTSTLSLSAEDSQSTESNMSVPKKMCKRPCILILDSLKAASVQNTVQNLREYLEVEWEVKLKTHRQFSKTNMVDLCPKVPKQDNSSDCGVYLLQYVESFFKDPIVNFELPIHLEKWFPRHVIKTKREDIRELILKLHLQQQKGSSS

Chain of ATP-dependent molecular chaperone HSP82 (C4YTQ8 whole entry): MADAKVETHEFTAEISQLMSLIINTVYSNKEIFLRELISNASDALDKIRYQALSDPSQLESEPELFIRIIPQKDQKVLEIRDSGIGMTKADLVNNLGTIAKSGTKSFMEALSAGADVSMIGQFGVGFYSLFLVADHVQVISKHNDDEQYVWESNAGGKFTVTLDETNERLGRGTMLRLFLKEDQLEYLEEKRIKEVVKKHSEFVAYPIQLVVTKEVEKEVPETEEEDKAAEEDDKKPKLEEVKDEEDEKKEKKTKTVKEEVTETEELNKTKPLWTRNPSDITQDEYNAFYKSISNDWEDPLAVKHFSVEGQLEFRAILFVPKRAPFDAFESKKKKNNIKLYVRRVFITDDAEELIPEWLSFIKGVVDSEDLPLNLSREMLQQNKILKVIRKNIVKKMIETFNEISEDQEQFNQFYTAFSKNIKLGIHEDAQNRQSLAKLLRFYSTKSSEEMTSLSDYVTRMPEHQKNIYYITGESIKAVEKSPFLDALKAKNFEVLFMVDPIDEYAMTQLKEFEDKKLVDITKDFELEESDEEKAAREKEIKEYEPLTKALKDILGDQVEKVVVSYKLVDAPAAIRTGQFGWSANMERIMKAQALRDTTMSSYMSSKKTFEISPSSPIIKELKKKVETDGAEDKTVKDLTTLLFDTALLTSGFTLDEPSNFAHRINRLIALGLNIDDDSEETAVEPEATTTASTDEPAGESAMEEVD

SMILES: Oc1ccc(N=Nc2ccc3c(c2)OCCO3)c2cccnc12
- EC50 [1]: 13.7 µM (inconclusive)
- IC50 [2]: 2.15 µM (active)
- EC50 [3]: 0.352 µM (active)
- EC50 (cells [4]): 5.17 µM (active)
- IC50 [5]: 1.37 µM (active)
- EC50 [6]: 1.24 µM (active)
- EC50 (cells [7]): 45.6 µM (active)
- EC50 [8]: > 180 µM (inactive)
- EC50 (Streptococcus): 1.15 µM (active)
- EC50 [9]: 12.8 µM (active)

SMILES: Cc1ccc(NC(=O)CNC(=O)c2ccc(Oc3ccccc3)cc2)nc1
- EC50 [1]: > 150 µM (inactive)
- EC50 [6]: 1.24 µM (active)
- EC50 [8]: > 180 µM (inactive)
- EC50 [9]: 21.7 µM (active)

SMILES: CCCN(CCC)CCCNC(=O)c1cc2c(=O)n(C)c3ccccc3c2n1C
- IC50 (HEK293): 24.7 µM (inactive)
- IC50 [10]: > 67.5 µM (inactive)
- AC50 [11]: 36.8 µM (active)

SMILES: Cc1ccc(CCNC(=O)CC2Oc3ccc(C)cc3NC2=O)cc1 (centres undefined)
- IC50 (HEK293): > 67.5 µM (inactive)
- IC50 [10]: > 67.5 µM (inactive)

SMILES: Fc1ccc(Nc2nc(-c3cccnc3)cs2)cc1
- IC50 (HEK293): > 67.5 µM (inactive)
- IC50 [10]: > 67.5 µM (inactive)

SMILES: Oc1ccccc1-c1nc(-c2ccccc2)no1
- IC50 [12]: 1.86 µM (active)
- IC50 (Caspase-3): 1.09 µM (active)
- IC50 [13]: 1.75 µM (active)
- IC50 [14]: 1.55 µM (active)

SMILES: CCCC(=O)Nc1ccc(-c2nc3cc(Cl)ccc3o2)cc1
- IC50 [12]: > 99 µM (inactive)
- IC50 (Caspase-3): > 99 µM (inactive)
- IC50 [13]: > 99 µM (inactive)
- IC50 [14]: > 99 µM (inactive)
